Test results from patent US20040009485A1, “Cellular arrays for the identification of altered gene expression” (priority 2002, published 2004).

System: LuxArray 1.04 E. coli strains (luxCDABE gene fusions)
Experiment: LuxArray 1.04 limonene stress of the reporter array in liquid culture
Type: cell-based
Conditions: for number of gene fusions upregulated by 2 fold or more / upregulation of gene fusion: 80% saturated limonene in LB; for number of gene fusions upregulated by 2 fold or more: LuxArray 1.04 (849 fusions)
Method: Microplates from −80° C. containing the LuxArray 1.04 E. coli strains were thawed and used to inoculate 100 μl LB medium supplemented with 100 μg/ml ampicillin in Costar#3595 flat bottomed 96-well microplates. Following overnight growth at 37° C., the plates were visually examined and any wells with little or no turbidity were recorded. Then these cultures were diluted by transfer of 15 μl to 135 μl LB medium in Costar #3595, flat bottom 96-well microplates and were moderately swirl shaken on an IKA Schuttler MTS 4 shaker at setting 400 for two hrs at 37° C. in a humidified box. Twenty μl of each these actively growing cultures were transferred to the corresponding well in sets of three microplates, one containing 80 μl of LB medium, another containing 80 μl of LB medium saturated with limonene at room temperature, and the third containing 40 μl of LB medium saturated with limonene and 40 μl of LB medium. An initial (zero time) reading was taken using an MLX microplate luminometer (Dynex) pre-warmed to 37° C. Then the plates were placed at 37° C. without shaking. Additional bioluminescent measurements were taken at 45, 90, and 135 minutes. To limit the number of microplates handled each day, LuxArray 1.04 microplates 1 to 5, microplates 6 to 10, microplates 11 to 15, and microplates […] were used on each of four different days.
The data were normalized to correct for growth-inhibition caused by limonene on the basis of each individual day that data was collected. The bioluminescence (RLU) of each individual culture for each day of experimentation under each of the three conditions, were added to determine the daily array total RLU. These were used to find a daily normalization factor (DNF) as follows:
DNF=Daily total array signal(time zero, LB control)/Daily total array signal(time x, condition y)
Each measurement from the corresponding day, time point, and condition was multiplied by DNF to yield a normalized signal. The data from wells that were scored to have little or no growth were not used in further analysis. The normalized data were analyzed with GeneSpring (Silicon Genetics) software, which averaged the signal from each of the duplicate cultures for each reporter gene fusion.
Thus, patterns of gene expression from the 80% saturated limonene in LB medium were further examined. […] These lists were examined and gene fusions with very low normalized RLU values (<0.012 RLU) at all conditions were eliminated. […] The designation of “>2X” is given for upregulation while “*” is listed if the expression was less than 2 fold increased. At 45 minutes, the expression of fourteen gene fusions was increased; none of these was increased 3 fold or higher. At 90 minutes, 37 gene fusions were induced; these included all but one of the gene fusions observed at 45 minutes. […] These were fusions of the luxCDABE reporter to the promoter regions of uhpT (3.8×), nirB (3.7×) and narK (3.6×). At 135 minutes, 39 gene fusions were induced, which included 13 fusions not observed at 45 or 90 minutes.

C=C(C)[C@H]1CC=C(C)CC1 [limonene]
upregulation of gene expression overall (40% saturated limonene in LB medium): little to no upregulation of gene expression
number of gene fusions upregulated by 2 fold or more (45 minutes): fourteen
number of gene fusions upregulated by 2 fold or more (90 minutes): 37 gene fusions
number of gene fusions upregulated by 2 fold or more (135 minutes): 39 gene fusions
upregulation of gene fusion (b0005 fusion, 45 minutes): * (“*” is listed if the expression was less than 2 fold increased)
upregulation of gene fusion (b0005 fusion, 90 minutes): * (“*” is listed if the expression was less than 2 fold increased)
upregulation of gene fusion (b0005 fusion, 135 minutes): >2X (The designation of “>2X” is given for upregulation)
upregulation of gene fusion (b0123 (yacK) fusion, 45 minutes): * (“*” is listed if the expression was less than 2 fold increased)
upregulation of gene fusion (b0314 (betT) fusion, 45 minutes): * (“*” is listed if the expression was less than 2 fold increased)
upregulation of gene fusion (b0314 (betT) fusion, 90 minutes): >2X (The designation of “>2X” is given for upregulation)
upregulation of gene fusion (b0314 (betT) fusion, 135 minutes): >2X (The designation of “>2X” is given for upregulation)
upregulation of gene fusion (b0417 fusion, 45 minutes): * (“*” is listed if the expression was less than 2 fold increased)
upregulation of gene fusion (b0417 fusion, 90 minutes): >2X (The designation of “>2X” is given for upregulation)
upregulation of gene fusion (b0417 fusion, 135 minutes): >2X (The designation of “>2X” is given for upregulation)
upregulation of gene fusion (b0422 (xseB) fusion, 45 minutes): * (“*” is listed if the expression was less than 2 fold increased)
upregulation of gene fusion (b0422 (xseB) fusion, 90 minutes): >2X (The designation of “>2X” is given for upregulation)
upregulation of gene fusion (b0422 (xseB) fusion, 135 minutes): * (“*” is listed if the expression was less than 2 fold increased)
upregulation of gene fusion (b0572 fusion, 45 minutes): * (“*” is listed if the expression was less than 2 fold increased)
upregulation of gene fusion (b0572 fusion, 90 minutes): >2X (The designation of “>2X” is given for upregulation)
upregulation of gene fusion (b0572 fusion, 135 minutes): >2X (The designation of “>2X” is given for upregulation)
upregulation of gene fusion (b0593 (entC) fusion, 45 minutes): * (“*” is listed if the expression was less than 2 fold increased)
upregulation of gene fusion (b0593 (entC) fusion, 90 minutes): >2X (The designation of “>2X” is given for upregulation)
upregulation of gene fusion (b0593 (entC) fusion, 135 minutes): >2X (The designation of “>2X” is given for upregulation)
upregulation of gene fusion (b0839 (dacC) fusion, 45 minutes): * (“*” is listed if the expression was less than 2 fold increased)
upregulation of gene fusion (b0839 (dacC) fusion, 90 minutes): >2X (The designation of “>2X” is given for upregulation)
upregulation of gene fusion (b0839 (dacC) fusion, 135 minutes): >2X (The designation of “>2X” is given for upregulation)
upregulation of gene fusion (b1188 (ycgB) fusion, 45 minutes): * (“*” is listed if the expression was less than 2 fold increased)
upregulation of gene fusion (b1188 (ycgB) fusion, 90 minutes): >2X (The designation of “>2X” is given for upregulation)
upregulation of gene fusion (b1188 (ycgB) fusion, 135 minutes): * (“*” is listed if the expression was less than 2 fold increased)
upregulation of gene fusion (b1223 (narK) fusion, 45 minutes): * (“*” is listed if the expression was less than 2 fold increased)
upregulation of gene fusion (b1223 (narK) fusion, 90 minutes): >2X (The designation of “>2X” is given for upregulation)
upregulation of gene fusion (b1223 (narK) fusion, 135 minutes): >2X (The designation of “>2X” is given for upregulation)
upregulation of gene fusion (b1676 (pykF) fusion, 45 minutes): >2X (The designation of “>2X” is given for upregulation)
upregulation of gene fusion (b1676 (pykF) fusion, 90 minutes): >2X (The designation of “>2X” is given for upregulation)
upregulation of gene fusion (b1676 (pykF) fusion, 135 minutes): >2X (The designation of “>2X” is given for upregulation)
upregulation of gene fusion (b1872 (bisZ) fusion, 45 minutes): * (“*” is listed if the expression was less than 2 fold increased)
upregulation of gene fusion (b1872 (bisZ) fusion, 90 minutes): >2X (The designation of “>2X” is given for upregulation)
upregulation of gene fusion (b1872 (bisZ) fusion, 135 minutes): >2X (The designation of “>2X” is given for upregulation)
upregulation of gene fusion (b1993 (cobU) fusion, 45 minutes): >2X (The designation of “>2X” is given for upregulation)
upregulation of gene fusion (b1993 (cobU) fusion, 90 minutes): >2X (The designation of “>2X” is given for upregulation)
upregulation of gene fusion (b1993 (cobU) fusion, 135 minutes): >2X (The designation of “>2X” is given for upregulation)
upregulation of gene fusion (b2081 fusion, 45 minutes): >2X (The designation of “>2X” is given for upregulation)
upregulation of gene fusion (b2081 fusion, 90 minutes): >2X (The designation of “>2X” is given for upregulation)
upregulation of gene fusion (b2081 fusion, 135 minutes): * (“*” is listed if the expression was less than 2 fold increased)
upregulation of gene fusion (b2237 (inaA) fusion, 45 minutes): * (“*” is listed if the expression was less than 2 fold increased)
upregulation of gene fusion (b2237 (inaA) fusion, 90 minutes): >2X (The designation of “>2X” is given for upregulation)
upregulation of gene fusion (b2237 (inaA) fusion, 135 minutes): >2X (The designation of “>2X” is given for upregulation)
upregulation of gene fusion (b2322 fusion, 45 minutes): * (“*” is listed if the expression was less than 2 fold increased)
upregulation of gene fusion (b2322 fusion, 90 minutes): >2X (The designation of “>2X” is given for upregulation)
upregulation of gene fusion (b2322 fusion, 135 minutes): >2X (The designation of “>2X” is given for upregulation)
upregulation of gene fusion (b2367 (emrY) fusion, 45 minutes): * (“*” is listed if the expression was less than 2 fold increased)
upregulation of gene fusion (b2367 (emrY) fusion, 90 minutes): >2X (The designation of “>2X” is given for upregulation)
upregulation of gene fusion (b2367 (emrY) fusion, 135 minutes): * (“*” is listed if the expression was less than 2 fold increased)
upregulation of gene fusion (b2451 fusion, 45 minutes): * (“*” is listed if the expression was less than 2 fold increased)
upregulation of gene fusion (b2451 fusion, 90 minutes): >2X (The designation of “>2X” is given for upregulation)
